We go through three compounds from patent US20130281409A1, “Myelin Sheath Fatty Acids that Resolve Neuroinflammation” (priority 2012, published 2013).

For test [1], the system named is EAE in PLP139-151-immunized SJL/J mice. As to the kind of experiment: EAE, lipid or palmitic-acid treatment of established disease. The test is classed as in vivo, mouse. As to the method:
Animal experiments were approved by, and performed in compliance with, the National Institute of Health guidelines of the Institutional Animal Care and Use Committee at Stanford University. For induction of EAE, 8- to 12-week-old female SJL/J mice (Jackson Laboratory) were immunized subcutaneously with 100 μg of PLP139-151 emulsified in CFA (Difco Laboratories). Lipid and palmitic-acid treatment: Administration of lipid, palmitic acid, or vehicle was initiated once the PLP139-151-immunized mice developed paralysis (representing clinical EAE) and repeated every other day, for a total of ten separate injections. 100 μg of POPS, PGPC, azPC ester, azPC, palmitic acid, or vehicle (0.05% Tween-20 in PBS) was administered in 0.2 ml intravenously in the tail. EAE treatment with lipid: 100 μg of PGPC or sphingomyelin or vehicle ([…] Tween-20 in PBS) was administered in 0.2 ml intravenously in the tail. Treatment with lipid or vehicle was initiated once the PLP139-151-immunized mice developed paralysis (representing clinical EAE) and repeated 3, 6, 12, and 18 days later, for a total of five separate injections.

Test [2] deals with naive MBPAc1-11-TCR transgenic splenocytes. As to the kind of experiment: MBPAc1-11-induced cytokine production by MBPAc1-11-TCR transgenic splenocytes. The test is classed as cell-based, mouse. The conditions noted are these: 30 μg/ml lipid; for MBPAc1-11-induced IFN-γ production / MBPAc1-11-induced IL-6 production / MBPAc1-11-induced TNF production: 2 μg/ml MBPAc1-11, 48 hours. As to the method:
(§1) Splenocytes were harvested from mice transgenic for the MBPAc1-11-specific T-cell receptor and stimulated with 2 μg/ml of MBPAc1-11 in the presence of 30 μg/ml of lipid. Lymph nodes and spleens were also harvested from naive C57BL/6 mice, and CD3^+ T-cell enrichment columns (R&D systems) were used to isolate CD3^+ T cells. […] Cytokine assays were performed on culture supernatants after 24 (IL-12p40) or 48 hours (IFN-γ, IL-6, and TNF) of culture by using the BD OptEIA™ Mouse ELISA kits (BD Biosciences).

The subject of test [3] is splenocytes from PLP139-151-immunized SJL mice. As to the kind of experiment: PLP139-151-induced cytokine production by splenocytes of PLP139-151-immunized mice. The test is classed as cell-based, mouse. Conditions: 30 μg/ml lipid, 48 hours. The procedure:
PLP-stimulated cells from PLP139-151-immunized mice administered PGPC prophylactically: SJL/J mice were co-injected with PGPC and PLP139-151 in CFA and sacrificed 48 days later. Lymph node cells and splenocytes were then harvested and re-stimulated in vitro (2.5×10^6 cells/ml) with 10 μg/ml of PLP139-151 or with media alone. PLP-stimulated cells from untreated PLP139-151-immunized mice: SJL/J mice were immunized with PLP139-151 in CFA and sacrificed 10 days later. Splenocytes were then harvested and re-stimulated in vitro (at 5×10^5 cells/ml) with 10 μg/ml of PLP139-151 in the presence of 30 μg/ml of POPS, PGPC, azPC ester, or azPC. Cytokine production by cells from the lymph nodes and spleens of PGPC co-immunized mice was measured after 66 hours of stimulation by using the BD OptEIA™ Mouse IFN-γ ELISA kit (BD Biosciences). Cytokine assays for the anti-CD3/anti-CD28 antibody-stimulated T cells and PLP139-151-stimulated splenocytes were performed on culture supernatants after 48 hours of stimulation using the BD OptEIA™ Mouse IL-6, IFN-γ, and TNF alpha ELISA kits (BD Biosciences) and the Mouse IL-17 DuoSet ELISA Development kit (R&D Systems).

Test [4] has the same test system. Description: PLP139-151-induced proliferation of splenocytes of PLP139-151-immunized mice. Conditions: 30 μg/ml lipid, 48 hours. The test is classed as cell-based, mouse. The procedure: PLP-stimulated cells from PLP139-151-immunized mice administered PGPC prophylactically: SJL/J mice were co-injected with PGPC and PLP139-151 in CFA and sacrificed 48 days later. Lymph node cells and splenocytes were then harvested and re-stimulated in vitro (2.5×10^6 cells/ml) with 10 μg/ml of PLP139-151 or with media alone. PLP-stimulated cells from untreated PLP139-151-immunized mice: SJL/J mice were immunized with PLP139-151 in CFA and sacrificed 10 days later. Splenocytes were then harvested and re-stimulated in vitro (at 5×10^5 cells/ml) with 10 μg/ml of PLP139-151 in the presence of 30 μg/ml of POPS, PGPC, azPC ester, or azPC.

In another test the test system is CD3+ T cells. As to the kind of experiment: Proliferation of anti-CD3/anti-CD28-stimulated purified T cells. Format: cell-based, mouse. Conditions: anti-CD3 or anti-CD3 and anti-CD28, 30 μg/ml lipid, 48 hours. As to the method: as §1, with “Biosciences). Cd1d^−/− T cells: We harvested splenocytes from Cd1d^−/− mice and their wild-type littermates and used CD3^+ T-cell enrichment columns (R&D systems) to isolate T cells. […] Anti-CD3/anti-CD28-stimulated purified T cells: We harvested lymph nodes and spleens from naive C57BL/6 mice and used CD3^+ T-cell enrichment columns (R&D systems) to isolate CD3^+ T cells.” for “Biosciences).”

For the next test, the system named is RAW 264.7 cells. Description: Apoptosis of LPS-stimulated RAW 264.7 macrophage cells. Format: cell-based, mouse. The conditions noted are these: 30 μg/ml lipid, 100 ng/ml LPS, 48 hours. The procedure:
LPS-stimulated RAW 264.7 mouse macrophage cells: 1×10^5 cells/ml of RAW 264.7 cells were stimulated with 100 ng/ml of lipopolysaccharide (LPS) in the presence of 30 μg/ml of POPS, PGPC, azPC ester, or azPC. Cells were stained according to standard protocols, run on a FACScan flow cytometer (BD Biosciences), and analysed with CellQuest software (BD Immunocytometry Systems) or with FlowJo software version 6.3.2 (Tree Star, Inc.).

Test [5] has as its system NF-κB and ERK pathways, Bcl-2 family proteins. Description: Immunoblot of inflammatory, survival and apoptotic signaling in anti-CD3/anti-CD28-stimulated T cells. The test is classed as cell-based, mouse. The conditions noted are these: 30 μg/ml lipid, 15 min or 24 h. The procedure:
CD3^+ T cells were isolated from the lymph nodes of naïve C57BL/6 mice by using CD3^+ T-cell enrichment columns (R&D systems). […] Cells were washed with ice-cold PBS and lysed in RIPA lysis buffer containing 1X Halt protease and phosphatase inhibitor cocktail (Pierce) with a Dounce homogenizer. Immunoblotting was performed with antibodies against phospho-Bim ([…]), phospho-Bad ([…]), phospho-Bcl-2 ([…]), phospho-IKKα/β (serines 180/181), phospho-p65 ([…]), phospho-ERK1/2 […]), and IκBα from Cell Signaling Technology.
(In general: Immunoblotting shows a protein as a band on a membrane.)

The mark [6] stands for this setting: 100 μg i.v. once paralysis developed, every other day, ten injections.

Entries after “also recorded” stand apart in the source; their conditions may differ.

On to `CCCCCCCCCCCCCCCC(=O)OC[C@H](COP(=O)([O-])OCC[N+](C)(C)C)OC(=O)CCCC(=O)O` [PGPC, 1-Palmitoyl-2-Glutaroyl-sn-Glycero-3-Phosphocholine], for which, in test [1] (100 μg i.v. from disease onset (10 days after immunization), five injections), the “EAE severity, established disease” value was “attenuated EAE that was already established”. Besides, the “EAE severity, established disease” value in test [1] (setting [6]) was “ameliorate established EAE”. Moreover, in test [2] (effects less dramatic than POPS and azPC), the “MBPAc1-11-induced cytokine levels (cytokines not specified)” value is given as “reduced levels of some of the cytokines”. Also, in test [3], the “PLP139-151-induced cytokine production (IL-17, IL-6, IFN-γ, TNF)” value (from here on “PLP139-151-induced cytokine production”) is given as “suppress”. Besides, the “PLP139-151-induced proliferation of splenocytes” value (shortened to “PLP139-151-induced proliferation”) in test [4] is “suppress”. In the test on CD3+ T cells, the “T-cell proliferation, wild-type and Cd1d−/− T cells” value (“T-cell proliferation” below) is given as “suppress T-cell proliferation independently of CD1d”. Also, the “apoptosis of LPS-activated RAW 264.7 cells” value (from here on “apoptosis”) in the test with RAW 264.7 cells was “induce apoptosis”. For the same compound, in test [5], the “CD3/CD28-induced activation of the NF-κB and ERK pathways” value (“CD3/CD28-induced activation” below) is recorded as “suppressed the CD3/CD28-induced activation”; the “CD3/CD28-induced phosphorylation of Bim (serine 69) and Bad (serine 112)” value (shortened to “CD3/CD28-induced phosphorylation of Bim”) is “suppressed the CD3/CD28-induced phosphorylation”.

Take `CCCCCCCC/C=C\CCCCCCCC(=O)O[C@H](COC(=O)CCCCCCCCCCCCCCC)COP(=O)(O)OC[C@H](N)C(=O)O` [POPS, 1-Palmitoyl-2-Oleoyl-sn-Glycero-3-[Phospho-L-Serine]]: in test [1] (setting [6]), the “EAE severity, established disease” value is given as “ameliorate established EAE”. The IL-12p40 production entry in test [2] (2 μg/ml MBPAc1-11, 24 hours) is recorded as “Neither POPS nor the oxidized phosphatidylcholine derivatives affected production”. In addition, in test [2], the “MBPAc1-11-induced IFN-γ production” value is given as “did not significantly reduce”, the “MBPAc1-11-induced IL-6 production” value is given as “reduced” and the “MBPAc1-11-induced TNF production” value is “reduced”. For the same compound, the “PLP139-151-induced cytokine production” value in test [3] is listed as “suppress”. Besides, the “PLP139-151-induced proliferation” value in test [4] was “suppress”. For the same compound, in the test on CD3+ T cells, the “T-cell proliferation” value is “suppress T-cell proliferation independently of CD1d”. For the same compound, the “apoptosis” value in the test on RAW 264.7 cells is listed as “induce apoptosis”. Further, in test [5], the “CD3/CD28-induced activation” value is recorded as “suppressed the CD3/CD28-induced activation”; the “CD3/CD28-induced phosphorylation of Bim” value is “suppressed the CD3/CD28-induced phosphorylation”.

Turning to `CCCCCCCCCCCCCCCC(=O)OC[C@H](COP(=O)([O-])OCC[N+](C)(C)C)OC(=O)CCCCCCCC(=O)O` [azPC, 1-Palmitoyl-2-Azelaoyl-sn-Glycero-3-Phosphocholine], the “EAE severity, established disease” value in test [1] (setting [6]) was “ameliorate established EAE”. Moreover, in test [2], the “MBPAc1-11-induced IFN-γ production” value is “reduced”, the “MBPAc1-11-induced IL-6 production” value is “reduced” and the “MBPAc1-11-induced TNF production” value was “reduced”. The “PLP139-151-induced cytokine production” value in test [3] is “suppress”. For the same compound, in test [4], the “PLP139-151-induced proliferation” value is reported as “suppress”. Moreover, the “T-cell proliferation” value in the test with CD3+ T cells was “suppress T-cell proliferation independently of CD1d”. Besides, the “apoptosis” value in the test with RAW 264.7 cells is “increased apoptosis; also recorded: induce apoptosis”. Also, in test [5], the “CD3/CD28-induced activation” value was “suppressed the CD3/CD28-induced activation”; the “CD3/CD28-induced phosphorylation of Bim” value was “suppressed the CD3/CD28-induced phosphorylation”.
